The values below come from patent US20070128217A1 (priority 2003, published 2007).

The subject of test [1] is antibodies in sera from SARS patients (sera 1a, 1b, 2, 6, 37, 62, London, SARS-yellow, SARS-green). Type of test: binding, human. Set-up: Binding of serum 6 to linear peptides of protein X1 of SARS-CoV Urbani / Binding of serum 37 to linear peptides of protein X1 of SARS-CoV Urbani / Binding of serum 6 to looped/cyclic peptide (PEPSCAN-ELISA) / Binding of serum 37 to looped/cyclic peptide (PEPSCAN-ELISA) / Binding of serum 37 to looped/cyclic peptides of protein X1 of SARS-CoV Urbani / Binding of serum 6 to linear peptides of protein X2 / Binding of serum 37 to linear peptides of protein X2 / Binding of serum 37 to looped/cyclic peptides of protein X2 of SARS-CoV Urbani / Binding of serum 6 to linear peptides of protein M of SARS-CoV Urbani / Binding of serum 37 to linear peptides of protein M of SARS-CoV Urbani / Binding of serum 6 to looped/cyclic peptides of protein M of SARS-CoV Urbani / Binding of serum 37 to looped/cyclic peptides of protein M of SARS-CoV Urbani / Binding of serum 6 to linear peptides of protein X3 of SARS-CoV Urbani / Binding of serum 37 to linear peptides of protein X3 of SARS-CoV Urbani / Binding of serum 37 to looped/cyclic peptides of protein X3 of SARS-CoV Urbani / Binding of serum 6 to linear peptides of protein X4 of SARS-CoV Urbani / Binding of serum 37 to linear peptides of protein X4 of SARS-CoV Urbani / Binding of serum 37 to looped/cyclic peptides of protein X4 of SARS-CoV Urbani / Binding of serum 6 to linear peptides of protein X5 of SARS-CoV Urbani / Binding of serum 37 to linear peptides of protein X5 of SARS-CoV Urbani / Binding of serum 37 to looped/cyclic peptides of protein X5 of SARS-CoV Urbani / Binding of serum 6 to linear peptides of protein N of SARS-CoV Urbani / Binding of serum 37 to linear peptides of protein N of SARS-CoV Urbani / Binding of serum 6 to linear peptide (PEPSCAN-ELISA) / Binding of serum 1a to looped/cyclic peptides of protein N of SARS-CoV Urbani / Binding of serum 1b to looped/cyclic peptides of protein N of SARS-CoV Urbani / Binding of serum 2 to looped/cyclic peptides of protein N of SARS-CoV Urbani / Binding of serum 6 to looped/cyclic peptides of protein N of SARS-CoV Urbani / Binding of serum 37 to looped/cyclic peptides of protein N of SARS-CoV Urbani / Binding of serum 62 to looped/cyclic peptides of protein N of SARS-CoV Urbani / Binding of serum London to looped/cyclic peptides of protein N of SARS-CoV Urbani / Binding of serum SARS-green to looped/cyclic peptides of protein N of SARS-CoV Urbani: unit not given here.

The test system of test [2] is control sera (pooled serum of ten healthy LUMC hospital workers; commercial negative donor pooled serum from the Dutch bloodbank). Type of test: binding, human. Set-up: Binding of Control serum LUMC to linear peptides / Binding of Control serum Blood-bank to linear peptides / Binding of Control serum LUMC to looped peptides / Binding of Control Serum Blood-Bank to Looped peptides / Binding of Control serum LUMC to linear peptides of the protein M of SARS-CoV Urbani / Binding of Control serum Blood-bank to linear peptides of the protein M of SARS-CoV Urbani / Binding of Control serum LUMC to looped peptides of the protein M of SARS-CoV Urbani / Binding of Control Serum Blood-Bank to Looped peptides of the protein M of SARS-CoV Urbani: unit not given here.

For test [3], the system named is rabbit serum obtained by immunizing a rabbit with the SARS-CoV strain Frankfurt 1. The format is binding. Set-up: Binding of a rabbit serum to linear peptides / Binding of a rabbit serum to looped peptides / Rabbit serum linear peptides / Rabbit serum looped peptides / Binding of a rabbit serum to linear peptides of protein N of SARS-CoV Urbani (Rabbit serum linear peptides) / Binding of a rabbit serum to looped/cyclic peptides of protein N of SARS-CoV Urbani (Rabbit serum looped peptides): unit not given here.

With TPNVTINCQDPAGGA, in test [1], the “Binding of serum 1a to linear peptides of protein X5 of SARS-CoV Urbani” value amounted to 0.8, the “Binding of serum 1a to looped/cyclic peptides of protein X5 of SARS-CoV Urbani” value was determined as 0.4, the “Binding of serum 1b to linear peptides of protein X5 of SARS-CoV Urbani” value amounted to 0.4 and the “Binding of serum 2 to linear peptides of protein X5 of SARS-CoV Urbani” value came to 0.4. In test [1], the “Binding of serum 2 to looped/cyclic peptides of protein X5 of SARS-CoV Urbani” value was 0.3, the “Binding of serum 6 to linear peptides of protein X5 of SARS-CoV Urbani” value amounted to 0.1, the “Binding of serum 6 to looped/cyclic peptides of protein X5 of SARS-CoV Urbani” value stood at 0.1 and the “Binding of serum 37 to linear peptides of protein X5 of SARS-CoV Urbani” value came to 0.8. Moreover, in test [1], the “Binding of serum 37 to looped/cyclic peptides of protein X5 of SARS-CoV Urbani” value is given as 0.4, the “Binding of serum 62 to linear peptides of protein X5 of SARS-CoV Urbani” value came to 0.5, the “Binding of serum 62 to looped/cyclic peptides of protein X5 of SARS-CoV Urbani” value worked out at 0.2 and the “Binding of serum London to linear peptides of protein X5 of SARS-CoV Urbani” value is on record as 0.6. In addition, in test [1], the “Binding of serum London to looped/cyclic peptides of protein X5 of SARS-CoV Urbani” value stood at 0.1, the “Binding of serum SARS-green to linear peptides of protein X5 of SARS-CoV Urbani” value was 0.4, the “Binding of serum SARS-green to looped/cyclic peptides of protein X5 of SARS-CoV Urbani” value turned out to be 0.2 and the “Binding of serum SARS-yellow to linear peptides of protein X5 of SARS-CoV Urbani” value is 0.0. Moreover, the “Binding of serum SARS-yellow to looped/cyclic peptides of protein X5 of SARS-CoV Urbani” value in test [1] is given as 0.2. Further, in test [2], the “Binding of Control Serum Blood-Bank to Looped peptides” value is given as 0.3, the “Binding of Control serum Blood-bank to linear peptides” value is on record as 0.6, the “Binding of Control serum LUMC to linear peptides” value came to 0.5 and the “Binding of Control serum LUMC to looped peptides” value turned out to be 0.2. In addition, in test [3], the “Rabbit serum linear peptides” value is listed as 0.0 and the “Rabbit serum looped peptides” value was 0.1.
TRGNTYSTAWLCALG: in test [1], the “Binding of serum 1a to linear peptides of protein X5 of SARS-CoV Urbani” value came out at 0.8, the “Binding of serum 1a to looped/cyclic peptides of protein X5 of SARS-CoV Urbani” value worked out at 0.4, the “Binding of serum 1b to linear peptides of protein X5 of SARS-CoV Urbani” value is given as 0.6 and the “Binding of serum 1b to looped/cyclic peptides of protein X5 of SARS-CoV Urbani” value came to 0.1. For the same sequence, in test [1], the “Binding of serum 2 to linear peptides of protein X5 of SARS-CoV Urbani” value turned out to be 0.6, the “Binding of serum 2 to looped/cyclic peptides of protein X5 of SARS-CoV Urbani” value worked out at 0.4, the “Binding of serum 6 to linear peptides of protein X5 of SARS-CoV Urbani” value is reported as 0.6 and the “Binding of serum 6 to looped/cyclic peptides of protein X5 of SARS-CoV Urbani” value was 0.3. For the same sequence, in test [1], the “Binding of serum 37 to linear peptides of protein X5 of SARS-CoV Urbani” value is reported as 0.8, the “Binding of serum 37 to looped/cyclic peptides of protein X5 of SARS-CoV Urbani” value amounted to 0.4, the “Binding of serum 62 to linear peptides of protein X5 of SARS-CoV Urbani” value is on record as 0.8 and the “Binding of serum 62 to looped/cyclic peptides of protein X5 of SARS-CoV Urbani” value is 0.6. Besides, in test [1], the “Binding of serum London to linear peptides of protein X5 of SARS-CoV Urbani” value was found to be 0.7, the “Binding of serum London to looped/cyclic peptides of protein X5 of SARS-CoV Urbani” value came out at 0.2, the “Binding of serum SARS-green to linear peptides of protein X5 of SARS-CoV Urbani” value was 0.6 and the “Binding of serum SARS-green to looped/cyclic peptides of protein X5 of SARS-CoV Urbani” value is listed as 0.3. Besides, in test [1], the “Binding of serum SARS-yellow to linear peptides of protein X5 of SARS-CoV Urbani” value turned out to be 0.5 and the “Binding of serum SARS-yellow to looped/cyclic peptides of protein X5 of SARS-CoV Urbani” value came to 0.3. Also, in test [2], the “Binding of Control Serum Blood-Bank to Looped peptides” value was determined as 0.4, the “Binding of Control serum Blood-bank to linear peptides” value is 0.7, the “Binding of Control serum LUMC to linear peptides” value is 0.6 and the “Binding of Control serum LUMC to looped peptides” value came to 0.6. In test [3], the “Rabbit serum linear peptides” value turned out to be 0.7 and the “Rabbit serum looped peptides” value turned out to be 0.0.
For TRHTYQLRARSVSPK, in test [1], the “Binding of serum 1a to linear peptides of protein X4 of SARS-CoV Urbani” value is given as 0.8, the “Binding of serum 1a to looped/cyclic peptides of protein X4 of SARS-CoV Urbani” value is listed as 0.8, the “Binding of serum 1b to linear peptides of protein X4 of SARS-CoV Urbani” value was 0.7 and the “Binding of serum 1b to looped/cyclic peptides of protein X4 of SARS-CoV Urbani” value turned out to be 0.4. Moreover, in test [1], the “Binding of serum 2 to linear peptides of protein X4 of SARS-CoV Urbani” value came to 0.7, the “Binding of serum 2 to looped/cyclic peptides of protein X4 of SARS-CoV Urbani” value stood at 0.8, the “Binding of serum 6 to linear peptides of protein X4 of SARS-CoV Urbani” value is 1.3 and the “Binding of serum 6 to looped/cyclic peptides of protein X4 of SARS-CoV Urbani” value turned out to be 0.9. Besides, in test [1], the “Binding of serum 37 to linear peptides of protein X4 of SARS-CoV Urbani” value was determined as 1.0, the “Binding of serum 37 to looped/cyclic peptides of protein X4 of SARS-CoV Urbani” value came to 0.7, the “Binding of serum 62 to linear peptides of protein X4 of SARS-CoV Urbani” value is 0.9 and the “Binding of serum 62 to looped/cyclic peptides of protein X4 of SARS-CoV Urbani” value was 0.6. Also, in test [1], the “Binding of serum London to linear peptides of protein X4 of SARS-CoV Urbani” value is reported as 0.8, the “Binding of serum London to looped/cyclic peptides of protein X4 of SARS-CoV Urbani” value is 0.4, the “Binding of serum SARS-green to linear peptides of protein X4 of SARS-CoV Urbani” value is 0.6 and the “Binding of serum SARS-green to looped/cyclic peptides of protein X4 of SARS-CoV Urbani” value turned out to be 0.7. Besides, in test [1], the “Binding of serum SARS-yellow to linear peptides of protein X4 of SARS-CoV Urbani” value came to 0.9 and the “Binding of serum SARS-yellow to looped/cyclic peptides of protein X4 of SARS-CoV Urbani” value worked out at 0.7. Further, in test [2], the “Binding of Control Serum Blood-Bank to Looped peptides” value is given as 0.7, the “Binding of Control serum Blood-bank to linear peptides” value is reported as 0.9, the “Binding of Control serum LUMC to linear peptides” value was determined as 0.9 and the “Binding of Control serum LUMC to looped peptides” value worked out at 0.7. Moreover, the “Recognition of the peptide by the rabbit serum” value in test [3] was “recognized”.
With TRSMWSFNPETNILL, in test [1], the “Binding of serum 1a to linear peptides of protein M of SARS-CoV Urbani” value came out at 0.8, the “Binding of serum 1a to looped/cyclic peptides of protein M of SARS-CoV Urbani” value is 1.0, the “Binding of serum 1b to linear peptides of protein M of SARS-CoV Urbani” value is listed as 0.7 and the “Binding of serum 1b to looped/cyclic peptides of protein M of SARS-CoV Urbani” value came out at 0.4. For the same sequence, in test [1], the “Binding of serum 2 to linear peptides of protein M of SARS-CoV Urbani” value is listed as 0.5, the “Binding of serum 2 to looped/cyclic peptides of protein M of SARS-CoV Urbani” value came to 0.8, the “Binding of serum 6 to linear peptides of protein M of SARS-CoV Urbani” value amounted to 0.5 and the “Binding of serum 6 to looped/cyclic peptides of protein M of SARS-CoV Urbani” value worked out at 0.9. In addition, in test [1], the “Binding of serum 37 to linear peptides of protein M of SARS-CoV Urbani” value is 0.5, the “Binding of serum 37 to looped/cyclic peptides of protein M of SARS-CoV Urbani” value amounted to 1.1, the “Binding of serum 62 to linear peptides of protein M of SARS-CoV Urbani” value turned out to be 0.4 and the “Binding of serum 62 to looped/cyclic peptides of protein M of SARS-CoV Urbani” value was 1.1. In test [1], the “Binding of serum London to linear peptides of protein M of SARS-CoV Urbani” value is on record as 0.3, the “Binding of serum London to looped/cyclic peptides of protein M of SARS-CoV Urbani” value turned out to be 0.3, the “Binding of serum SARS-green to linear peptides of protein M of SARS-CoV Urbani” value is 0.5 and the “Binding of serum SARS-green to looped/cyclic peptides of protein M of SARS-CoV Urbani” value is 0.5. In test [1], the “Binding of serum SARS-yellow to linear peptides of protein M of SARS-CoV Urbani” value came to 0.3 and the “Binding of serum SARS-yellow to looped/cyclic peptides of protein M of SARS-CoV Urbani” value was found to be 0.7. In test [2], the “Binding of Control Serum Blood-Bank to Looped peptides of the protein M of SARS-CoV Urbani” value was found to be 0.9, the “Binding of Control serum Blood-bank to linear peptides of the protein M of SARS-CoV Urbani” value was found to be 0.7, the “Binding of Control serum LUMC to linear peptides of the protein M of SARS-CoV Urbani” value came to 0.8 and the “Binding of Control serum LUMC to looped peptides of the protein M of SARS-CoV Urbani” value is given as 0.9. Besides, in test [3], the “Rabbit serum linear peptides” value amounted to 0.1 and the “Rabbit serum looped peptides” value was determined as 0.3.
